A word on the IC50: it is the midpoint of a concentration-inhibition curve.

In assay [1] the target is GST-tagged K-Ras mutant / His-tagged hSOS1 (Homo sapiens, UniProt P01116). The experiment in a line: HTRF assay, K-Ras mutant / SOS1 interaction. The class given is binding. To be noted: read-out: IC50 against mutant Kras. The procedure, abridged:
(§1)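 Compounds tested in duplicate from 10 μM down to 0.01 μM, incubated about 10 min or longer with GST-K-Ras/anti-GST-Eu and His-hSOS1/anti-6His-XL665 in ~5 mM HEPES pH 7.4 buffer with ~150 mM NaCl, DTT, BSA and Igepal. IC50 derived from 665/620 nm emission ratio.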
For orientation: TR-FRET usually uses a lanthanide donor and a delayed reading to cut background.

The target of a further assay is T1, wildtype Kras / hSOS1 (Homo sapiens, UniProt P01116).
T1 construct: made in house; host or cells: E. coli BL21 (DE3)
T1 sequence (P01116 1-188 isoform P01116-2): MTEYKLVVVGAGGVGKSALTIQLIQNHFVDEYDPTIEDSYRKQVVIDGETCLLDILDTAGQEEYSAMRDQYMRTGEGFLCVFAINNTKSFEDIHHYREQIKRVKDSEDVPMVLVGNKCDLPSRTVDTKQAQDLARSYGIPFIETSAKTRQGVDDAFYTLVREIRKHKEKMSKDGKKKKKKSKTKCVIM
Nature of the assay: HTRF assay, wildtype Kras / SOS1 interaction. The class given is binding. The following applies: read-out: IC50 against wildtype Kras. The method, boiled down:
as §1

Where [2] appears, read: compound nos. 102-196, general methodology of example 5.
The mark [3] stands for this setting: compound nos. 201-213, general methodology of example 5.

Like-named read-outs stand apart in the source and are kept apart here.

Chain of GST-tagged K-Ras mutant / His-tagged hSOS1 (P01116 whole entry G12D, form open): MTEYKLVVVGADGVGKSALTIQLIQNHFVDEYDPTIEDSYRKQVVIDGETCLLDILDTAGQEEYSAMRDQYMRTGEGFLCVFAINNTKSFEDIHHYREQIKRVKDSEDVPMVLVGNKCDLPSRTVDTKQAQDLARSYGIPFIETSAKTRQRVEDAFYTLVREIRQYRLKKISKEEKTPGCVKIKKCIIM

Turning to `N#CCC1CNCCN(c2nc(OCC34CCCN3CCC4)nc3c(F)c(-c4ccc(F)c5sc(N)nc45)c(Cl)cc23)C1` (stereo not shown) [Compound 187, 2-(1-(7-(2-amino-7-fluoro-benzo[d]thiazol-4-yl)-6-chloro-8-fluoro-2-((tetra-hydro-1H-pyrrolizin-7a(5H)-yl)methoxy)quin-azolin-4-yl)-1,4-diazepan-6-yl)acetonitrile], the IC50 (in assay [1] (setting [2]); at wildtype Kras / hSOS1 (setting [2])) was below 500 nM throughout.
With `Fc1c(N2CCc3ccccc32)ccc2c(N3CCCCCC3)nc(OCC34CCCN3CCC4)nc12` [Compound 487, 4-(azepan-1-yl)-8-fluoro-7-(indolin-1-yl)-2-((tetra-hydro-1H-pyrrolizin-7a(5H)-yl)methoxy)quin-azoline], the IC50 in assay [1] (compound nos. 401-703) is above 500 nM; on wildtype Kras / hSOS1 (compound nos. 401-703) it was below 500 nM.
With `CN1CCC[C@H]1COc1nc(N2CCN(S(N)(=O)=O)CC(F)(F)C2)c2cc(Cl)c(-c3cccc4sc(N)nc34)c(F)c2n1` [Compound 150, 4-(7-(2-aminobenzo[d]-thiazol-4-yl)-6-chloro-8-fluoro-2-(((S)-1-methyl-pyrrolidin-2-yl)methoxy)-quinazolin-4-yl)-6,6-difluoro-1,4-diazepane-1-sulfonamide], the IC50 in assay [1] (setting [2]) is above 500 nM; on wildtype Kras / hSOS1 (setting [2]), below 500 nM.
For `CN(C)C/C=C/C(=O)N1CC2(CCCN(c3nc(OC[C@@]45CCCN4C[C@H](F)C5)nc4c(F)c(-c5ccc(F)c6sc(N)c(C#N)c56)c(Cl)cc34)C2)C1` [Compound 522, 2-amino-4-(6-chloro-4-(2-((E)-4-(dimethylamino)but-2-enoyl)-2,6-diazaspiro[3.5]nonan-6-yl)-8-fluoro-2-(((2R,7aS)-2-fluorotetrahydro-1H-pyrrolizin-7a(5H)-yl)methoxy)quinazolin-7-yl)-7-fluorobenzo[b]thiophene-3-carbonitrile], the figures for the IC50 (in assay [1] (compound nos. 401-703); on wildtype Kras / hSOS1 (compound nos. 401-703)) were below 500 nM and above 500 nM, respectively.
For `Nc1nc2c(-c3c(Cl)cc4c(N5CCOCC(O)C5)nc(OCC56CCCN5CCC6)nc4c3F)ccc(F)c2s1` (stereo not shown) [Compound 159, 4-(7-(2-amino-7-fluoro-benzo[d]thiazol-4-yl)-6-chloro-8-fluoro-2-((tetra-hydro-1H-pyrrolizin-7a(5H)-yl)methoxy)quinazolin-4-yl)-1,4-oxazepan-6-ol], the IC50 (in assay [1] (setting [2]); on wildtype Kras / hSOS1 (setting [2])) was below 500 nM each time.
Regarding `COc1nc2c(N3CC4CCC(C3)N4)nc(OC[C@@]34CCCN3C[C@H](F)C4)nc2cc1-c1cc(O)cc2ccccc12` [Compound 533, 4-(4-(3,8-diazabicyclo-[3.2.1]octan-3-yl)-2-(((2R,7aS)-2-fluorotetra-hydro-1H-pyrrolizin-7a(5H)-yl)methoxy)-6-methoxypyrido-[3,2-d]-pyrimidin-7-yl)naphthalen-2-ol], the IC50 (in assay [1] (compound nos. 401-703); at wildtype Kras / hSOS1 (compound nos. 401-703)) was above 500 nM each time.
As for `N#CCCc1cc2c(N3CC4CCC(C3)N4)nc(OC[C@@]34CCCN3C[C@H](F)C4)nc2c(F)c1-c1ccc(F)c2sc(N)c(C#N)c12` [Compound 464, 4-(4-(3,8-diazabicyclo-[3.2.1]octan-3-yl)-6-(2-cyanoethyl)-8-fluoro-2-(((2R,7aS)-2-fluorotetra-hydro-1H-pyrrolizin-7a(5H)-yl)methoxy)quin-azolin-7-yl)-2-amino-7-fluorobenzo[b]thiophene-3-carbonitrile], the half-maximal inhibitory concentration (IC50) (in assay [1] (compound nos. 401-703); at wildtype Kras / hSOS1 (compound nos. 401-703)) was below 500 nM each time.
As for `CN1CCC[C@H]1COc1nc(N2CC3CNCC3C2)c2cc(Cl)c(-c3cccc4sc(N)nc34)c(F)c2n1` (stereo partly drawn) [Compound 144, 4-(6-chloro-8-fluoro-4-(hexahydropyrrolo[3,4-c]-pyrrol-2(1H)-yl)-2-(((S)-1-methylpyrrolidin-2-yl)meth-oxy)quinazolin-7-yl)benzo-[d]thiazol-2-amine], the IC50 (in assay [1] (setting [2]); at wildtype Kras / hSOS1 (setting [2])) was above 500 nM in each case.
On to `Nc1c(-c2ccccc2)cccc1-c1c(Cl)cc2c(N3CC4CCC(C3)N4)nc(OCC34CCCN3CCC4)nc2c1F` [Compound 683, 3-(4-(3,8-diazabicyclo-[3.2.1]-octan-3-yl)-6-chloro-8-fluoro-2-((tetrahydro-1H-pyrrolizin-7a(5H)-yl)meth-oxy)quinazolin-7-yl)-[1,1′-biphenyl]-2-amine], for which the IC50 (in assay [1] (compound nos. 401-703); on wildtype Kras / hSOS1 (compound nos. 401-703)) was above 500 nM throughout.
In the case of `Nc1nc2c(-c3c(Cl)cc4c(N5CCC6CCC(C5)N6)nc(OC[C@@]56CCCN5C[C@H](F)C6)nc4c3F)ccc(F)c2s1` (stereo partly drawn) [Compound 684, 4-(4-(3,9-diazabicyclo-[4.2.1]nonan-3-yl)-6-chloro-8-fluoro-2-(((2R,7aS)-2-fluorotetrahydro-1H-pyrrol-izin-7a(5H)-yl)methoxy)-quinazolin-7-yl)-7-fluoro-benzo[d]thiazol-2-amine], the IC50 in assay [1] (compound nos. 401-703) is below 500 nM; at wildtype Kras / hSOS1 (compound nos. 401-703), above 500 nM.
As to `Oc1ccc2ccc(-c3c(Cl)cc4c(N5CC6CCC(C5)N6)nc(OCC56CCCN5CCC6)nc4c3F)cc2c1` [Compound 650, 7-(4-(3,8-diazabicyclo-[3.2.1]octan-3-yl)-6-chloro-8-fluoro-2-((tetrahydro-1H-pyrrolizin-7a(5H)-yl)meth-oxy)quinazolin-7-yl)naph-thalen-2-ol], the 50% inhibitory concentration (IC50) (in assay [1] (compound nos. 401-703); on wildtype Kras / hSOS1 (compound nos. 401-703)) was above 500 nM each time.
For the compound `CNCCN1CCCN(c2nc(OCC34CCCN3CCC4)nc3c(F)c(-c4ccc(F)c5sc(N)nc45)c(Cl)cc23)CC1` [Compound 575, 4-(6-chloro-8-fluoro-4-(4-(2-(methylamino)ethyl)-1,4-diazepan-1-yl)-2-((tetra-hydro-1H-pyrrolizin-7a(5H)-yl)methoxy)quinazolin-7-yl)-7-fluorobenzo[d]thiazol-2-amine], the results for the IC50 (in assay [1] (compound nos. 401-703); at wildtype Kras / hSOS1 (compound nos. 401-703)) were below 500 nM and above 500 nM, respectively.
As for `CN(C)C1CN(c2nc(N3CCNCC(F)(F)C3)c3cc(Cl)c(-c4cccc5sc(N)nc45)c(F)c3n2)C1` [Compound 135, 4-(6-chloro-4-(6,6-difluoro-1,4-diazepan-1-yl)-2-(3-(dimethylamino)azetidin-1-yl)-8-fluoroquinazolin-7-yl)-benzo[d]thiazol-2-amine], the IC50 (in assay [1] (setting [2]); at wildtype Kras / hSOS1 (setting [2])) was above 500 nM each time.
Regarding `CN1CCC[C@H]1COc1nc(N2CCNCC(F)(F)C2)c2cc(Cl)c(-c3cccc4nc(N)oc34)c(F)c2n1` [Compound 166, 7-(6-chloro-4-(6,6-difluoro-1,4-diazepan-1-yl)-8-fluoro-2-(((S)-1-methylpyrrolidin-2-yl)methoxy)quinazolin-7-yl)benzo[d]oxazol-2-amine], the IC50 (in assay [1] (setting [2]); on wildtype Kras / hSOS1 (setting [2])) was above 500 nM in each case.
For the compound `CN1[C@@H]2CC[C@H]1CN(c1nc(OC[C@@]34CCCN3C[C@H](F)C4)nc3c(F)c(-c4ccc(F)c5sc(N)nc45)c(Cl)cc13)C2` [Compound 205, 4-(6-chloro-8-fluoro-2-(((2R,7aS)-2-fluorotetra-hydro-1H-pyrrolizin-7a(5H)-yl)methoxy)-4-((1R,5S)-8-methyl-3,8-diazabicyclo[3.2.1]octan-3-yl)quinazolin-7-yl)-7-fluorobenzo[d]thiazol-2-amine], the IC50 (in assay [1] (setting [3]); at wildtype Kras / hSOS1 (setting [3])) was below 1500 nM each time.
In the case of `Cc1cc2c(N3CCNCC(F)(F)C3)nc(OC[C@@H]3CCCN3C)nc2c(F)c1-c1cccc2sc(N)nc12` [Compound 157, 4-(4-(6,6-difluoro-1,4-diazepan-1-yl)-8-fluoro-6-methyl-2-(((S)-1-methyl-pyrrolidin-2-yl)methoxy)-quinazolin-7-yl)benzo[d]-thiazol-2-amine], the IC50 (in assay [1] (setting [2]); on wildtype Kras / hSOS1 (setting [2])) was below 500 nM each time.
As to `Nc1nc2c(-c3c(Cl)cc4c(N5CC6CCNCC6C5)nc(OC[C@@]56CCCN5C[C@H](F)C6)nc4c3F)ccc(F)c2s1` (stereo partly drawn) [Compound 566, 4-(6-chloro-8-fluoro-2-(((2R,7aS)-2-fluorotetra-hydro-1H-pyrrolizin-7a(5H)-yl)methoxy)-4-(octahydro-2H-pyrrolo[3,4-c]pyridin-2-yl)quinazolin-7-yl)-7-fluoro-benzo[d]thiazol-2-amine], the IC50 was below 500 nM in assay [1] (compound nos. 401-703) and above 500 nM on wildtype Kras / hSOS1 (compound nos. 401-703).
Take `Oc1cc(N2CCc3nc(OCC45CCCN4CCC5)nc(N4C[C@H]5CC[C@@H](C4)N5)c3CC2)c2ccccc2c1` [Compound 521, 4-(4-((1R,5S)-3,8-diazabicyclo[3.2.1]octan-3-yl)-2-((tetrahydro-1H-pyrrolizin-7a(5H)-yl)methoxy)-5,6,8,9-tetrahydro-7H-pyrimido[4,5-d]azepin-7-yl)naphthalen-2-ol]: the IC50 (in assay [1] (compound nos. 401-703); on wildtype Kras / hSOS1 (compound nos. 401-703)) was above 500 nM in each case.
As for `Cc1ccc2sc(N)nc2c1-c1c(Cl)cc2c(N3CCNCC(F)(F)C3)nc(OCC34CCCN3CCC4)nc2c1O` [Compound 426, 7-(2-amino-5-methylbenzo-[d]thiazol-4-yl)-6-chloro-4-(6,6-difluoro-1,4-diazepan-1-yl)-2-((tetrahydro-1H-pyrrolizin-7a(5H)-yl)meth-oxy)quinazolin-8-ol], the IC50 is above 500 nM in assay [1] (compound nos. 401-703) and below 500 nM on wildtype Kras / hSOS1 (compound nos. 401-703).
For `N#Cc1c(N)sc2c(F)ccc(-c3c(Cl)cc4c(N5CCCC6(CCNC6)C5)nc(OC[C@@]56CCCN5C[C@H](F)C6)nc4c3F)c12` (stereo partly drawn) [Compound 592, 2-amino-4-(6-chloro-8-fluoro-2-(((2R,7aS)-2-fluorotetrahydro-1H-pyrrol-izin-7a(5H)-yl)methoxy)-4-(2,7-diazaspiro[4.5]decan-7-yl)quinazolin-7-yl)-7-fluorobenzo[b]thiophene-3-carbonitrile] the same measures were below 500 nM and above 500 nM.

The values are drawn from US20240254129A1, “HETEROCYCLIC COMPOUNDS AND USES THEREOF” (Kumquat Biosciences Inc., priority 2021, published 2024).
